Experimental data reported in patent publication US12480163B2, “Compositions and methods for identification assessment, prevention, and treatment of Ewing sarcoma using TP53 dependency biomarkers and modulators” (Dana-Farber Cancer Institute, Inc., priority 2018, dated 2025).
Entries after “also recorded” stand apart in the source; their conditions may differ.

What was measured:
[1] = tested on: TP53 mutated Ewing sarcoma cell lines; assay: CellTiter-Glo cell viability assay, TP53 mutated Ewing sarcoma cell lines; type: cell-based; details: treated for 3 d
Protocol: (§1) Cell viability was assessed using the CellTiter-Glo® Luminescent Cell Viability Assay (Promega). Viability assays were performed after Ewing sarcoma cell lines were infected with sgRNAs targeting TP53, MDM2, MDM4, PPM1D, or USP7 or treated with ATSP-7041, ATSP-7342, GSK2830371, P5091, XL-188, or vehicle control.

PDX tumors (HSJD-ES-002) = assay: Ewing sarcoma PDX (HSJD-ES-002) anti-tumor efficacy study; type: in vivo, mice
Protocol: j. Ewing Sarcoma Xenograft Studies
For anti-tumor efficacy studies, tumor xenografts were established in 15 nude female mice by implanting three million TC32 cells into the right flank. Animals were randomized to either 20 d of treatment with 30 mg/kg q.o.d. IV ATSP-7041 (n=8) or vehicle (n=7) for a total of 10 doses. Treatment was started when tumors reached 100-200 mm3. Tumor volumes were measured with calipers twice a week. For PDX studies, tumor fragments were implanted into the right flank of nude female mice by minor surgery. After tumor engraftment, studies were performed as described for TC32 xenograft studies.
For in vivo studies, ATSP-7041 was prepared using the following protocol: mPEG-DSPE (Nanocs) was dissolved in chloroform and dried by a rotary evaporator. ATSP-7041 was dissolved in 1 M NaOH and diluted 100-fold in 10 mM histidine-buffered saline to a final concentration of 3 mg/ml. This mixture was added to the dried lipid film to a final mPEG-DSPE concentration of 50 mg/ml and final pH 7. The film was rehydrated by brief sonication and heating in a 50° C. water bath. The mixture was then subjected to five freeze-thaw cycles in liquid nitrogen and 40° C. water, respectively, and the solution passed 10 times through an Avanti Mini-Extruder Set (Avanti Polar Lipids) equipped with a 800-nm filter (Whatman).

[2] = tested on: TC32, TC138, and CHLA258 cells; assay: Drug synergy analysis, Chou-Talalay combination index for Loewe additivity; type: cell-based; details: CI<1 synergistic; for combination index, ATSP-7041 combined with P5091: CI>1 antagonistic
Protocol: as §1
k. Drug Synergy Analysis Chou-Talalay Combination Index for Loewe Additivity
Loewe Additivity is a dose-effect approach that estimates the effect of combining two drugs based on the concentration of each individual drug that produces the same quantitative effect (Goldoni and Johansson (2007) Toxicol. In Vitro 21:759-769). […] They introduced the combination index (CI) scores to estimate the interaction between the two drugs. If CI<1, the drugs have a synergistic effect, and if CI>1, the drugs have an antagonistic effect. CI=1 means the drugs have an additive effect.

[3] = TC32, TC138, CHLA258, 3 d, CI=1 additive

## CC(=O)N[C@@H](CC(C)C)C(=O)N[C@H](C(=O)N[C@@H](Cc1ccccc1)C(=O)N[C@]1(C)CCCCCCC=CCCC[C@@](C)(C(=O)N[C@@H](CO)C(=O)N[C@@H](C)C(=O)N[C@@H](C)C(N)=O)NC(=O)[C@H](CC2CCC2)NC(=O)[C@H](CCC(N)=O)NC(=O)[C@H](C)NC(=O)[C@H](Cc2c[nH]c3ccccc23)NC(=O)[C@H](Cc2ccc(O)cc2)NC(=O)[C@H](CCC(=O)O)NC1=O)[C@@H](C)O [ATSP-7041, Ac-Leu17-Thr-Phe-cyclo(R8-Glu-Tyr-Trp-Ala-Gln-Cba-S5)-Ser-Ala-Ala30-NH2]
[1]
  cell viability, normalized to vehicle control: resistant
PDX tumors (HSJD-ES-002); PDX HSJD-ES-002, 10 doses 30 mg/kg q.o.d. vs vehicle
  survival of mice: significantly extended
PDX tumors (HSJD-ES-002); PDX HSJD-ES-002, 10 doses 30 mg/kg q.o.d. vs vehicle, 30 mg/kg
  tumor growth (normalized tumor volume): slowed significantly; also recorded: slowed in all mice
PDX tumors (HSJD-ES-002); PDX HSJD-ES-002, one mouse of n=8, observed time frame of 227 d
  complete tumor regression: complete tumor regression without recurrence; also recorded: one out of eight mice achieved complete and sustained remission of disease
[2]; CHLA258, 5 d, CI=1 additive
  combination index, ATSP-7041 combined with P5091: additivity
[2]; [3]
  combination index, ATSP-7041 combined with doxorubicin: additivity or synergy
  combination index, ATSP-7041 combined with etoposide: additivity or synergy
  combination index, ATSP-7041 combined with vincristine: additivity or synergy
[2]; TC32, TC138, and CHLA258, 3 d
  combination index, ATSP-7041 combined with GSK2830371: strong synergy
[2]; TC32 and TC138, 5 d, CI=1 additive
  combination index, ATSP-7041 combined with P5091: synergy
